In a flash point compilation (Sun et al. 2020) one finds flash point data, which are given here for 107 molecules.

Where a name gives a salt, the structure may show the parent alone.

`C[Si]1(C)CCCCO1` [1,1 -Dimethyl-1-sila-2-oxacyclohexane] gave a flash point of 14.00 °C. On the same count and under the same terms, as for `C[SiH](C)O[SiH](C)C` [1,1,3,3-Tetramethyldisiloxane], the figure is -22.00 °C. Still for that read-out and setting: as for `C=CC=CO[Si](C)(C)C` [1-(Trimethylsiloxy)-1,3-butadiene], the figure is 25.00 °C.

This is another data set of the same source.
As for `C=CCC` [1-Butene], the flash point is -80.00 °C. With `CCC(Cl)[N+](=O)[O-]` (configuration not stated) [1-Chloro-1-nitropropane], the flash point is 62.00 °C. With `O=[N+]([O-])c1ccc(Cl)c([N+](=O)[O-])c1` [1-Chloro-2,4-dinitrobenzene], the flash point worked out at 194.00 °C.

Turning to `Nc1cccc2ccccc12` [1-Naphthylamine], the flash point amounted to 157.00 °C. In turn, `CCC[N+](=O)[O-]` [1-Nitropropane] returned a flash point of 49.00 °C. On to `Oc1ccc(Cl)cc1Cl` [2,4-Dichlorophenol], for which the flash point came to 114.00 °C.

Regarding `CC=CC=CC=O` [2,4-Hexadienal], the flash point is 68.00 °C. In turn, `CCCCC(CC)CO` (configuration not stated) [2-Ethyl hexanol] had a flash point of 84.00 °C. Still for that read-out and setting: as for `OCCS` [2-Mercaptoethanol], the figure is 74.00 °C; as for `Cc1ccco1` [2-Methyl furan], -30.00 °C; as for `Cc1ccccn1` [2-Picoline], 39.00 °C. On the same count and under the same terms, as for `C1=COCCC1` [3,4-Dihydro-2H-pyran], the figure is -18.00 °C; as for `Cc1ccncc1` [4-Picoline], 57.00 °C; as for `CC(=O)Nc1ccccc1` [Acetanilide], 174.00 °C.

In turn, `CC(C)(O)C#N` [Acetone cyanohydrin] came in with a flash point of 74.00 °C. Regarding `C=CC(=O)O` [Acrylic acid], the flash point worked out at 52.00 °C. Still for that read-out and setting: to `N#Cc1ccccc1` [Benzonitrile] belongs 85.00 °C; to `O=C(Cl)c1ccccc1` [Benzoyl chloride], 72.00 °C.

Take `NCc1ccccc1` [Benzylamine]: the flash point was determined as 63.00 °C. Still for that read-out and setting: to `c1ccc(-c2ccccc2)cc1` [Biphenyl] belongs 113.00 °C; to `Brc1ccccc1` [Bromobenzene], 51.00 °C; to `CCCCS` [Butyl mercaptan], 2.00 °C. Still for that read-out and setting: as for `C=C(C)C(=O)OCCCC` [Butyl methacrylate], the figure is 52.00 °C. `CCCCCC(=O)O` [Caproic acid]: the flash point was 102.00 °C. Same read-out and setting: as for `S=C=S` [Carbon disulphide], the figure is -30.00 °C; as for `O=CCCl` [Chloroacetaldehyde], 88.00 °C; as for `Clc1cccc2ccccc12` [Chloronaphthalene], 132.00 °C. The molecule `C/C=C/C=O` [Crotonaldehyde] showed a flash point of 13.00 °C. As for `CC(C)c1ccccc1` [Cumene], the flash point came out at 44.00 °C. Same read-out and setting: as for `O=C1CCCCC1` [Cyclohexanone], the figure is 44.00 °C; as for `O=C1CCCC1` [Cyclopentanone], 26.00 °C; as for `CC(=O)CC(C)(C)O` [Diacetone alcohol], 64.00 °C.

With `CCCCOC(=O)C(=O)OCCCC` [Dibutyl oxalate], the flash point was 104.00 °C.

For the molecule `CCCCOC(=O)c1ccccc1C(=O)OCCCC` [Dibutyl phthalate], the flash point was determined as 157.00 °C. The same measure, in the same setting: to `CCCCOC(=O)C(O)C(O)C(=O)OCCCC` (configuration not stated) [Dibutyl tartrate] belongs 91.00 °C; to `O=C(Cl)C(Cl)Cl` [Dichloroacetyl chloride], 66.00 °C; to `C1CCC(NC2CCCCC2)CC1` [Dicyclohexylamine], 99.00 °C. On the same count and under the same terms, as for `NCCNCCN` [Diethylenetriamine], the figure is 102.00 °C; as for `CC(C)CC(O)CC(C)C` [Diisobutyl carbinol], 74.00 °C; as for `COC(C)(C)OC` [Dimethoxypropane], -7.00 °C. On the same count and under the same terms, to `COC(=O)OC` [Dimethyl carbonate] belongs 19.00 °C; to `COC(=O)c1ccccc1C(=O)OC` [Dimethyl phthalate], 146.00 °C; to `COC(C)COC(C)CO` (configuration not stated) [Dipropylene glycol methyl ether], 85.00 °C. For the molecule `ClCC1CO1` (configuration not stated) [Epichlorohydrin], the flash point turned out to be 41.00 °C.

`CCCC(=O)Nc1ccccc1` [Ethyl acetanilide] returned a flash point of 52.00 °C. With `CCOC(=O)CC(C)=O` [Ethyl acetoacetate], the flash point is 84.00 °C. The molecule `CCCCCC(=O)CC` [Ethyl amyl ketone] came in with a flash point of 57.00 °C. With `CCOC(=O)CCl` [Ethyl chloroacetate], the flash point came to 66.00 °C. Same read-out and setting: to `C/C=C/C(=O)OCC` [Ethyl crotonate] belongs 2.00 °C; to `CCOC(=O)CC` [Ethyl propionate], 12.00 °C. The same measure, in the same setting: as for `OCCCl` [Ethylene chlorohydrin], the figure is 60.00 °C; as for `NC=O` [Formamide], 155.00 °C. On the same count and under the same terms, as for `O=Cc1ccco1` [Furfural], the figure is 60.00 °C; as for `OCC(O)CO` [Glycerol], 160.00 °C; as for `CC(=O)CC(C)C` [Isobutyl methyl ketone], 17.00 °C. `C=CC(=C)C` [Isoprene]: the flash point was -54.00 °C. The same measure, in the same setting: to `C=CC(=O)OC` [Methyl acrylate] belongs -3.00 °C.

The molecule `CCC(C)=O` [Methyl ethyl ketone] had a flash point of -7.00 °C. Turning to `CC(=O)CC(C)C` [Methyl isobutyl ketone], the flash point was found to be 23.00 °C. Still for that read-out and setting: as for `COC(=O)C(C)C` [Methyl isobutyrate], the figure is 13.00 °C; as for `C=C(C)C(=O)OC` [Methyl methacrylate], 10.00 °C. As for `CCCC(C)=O` [Methyl-n-Propyl ketone], the flash point was 7.00 °C. Turning to `CN(C)c1ccccc1` [N,N-Dimethylaniline ], the flash point is 63.00 °C. Molecule `c1ccc2ccccc2c1` [Naphthalene] yielded a flash point of 79.00 °C.

`Oc1ccccc1` [Phenol] returned a flash point of 79.00 °C. In turn, `NCC(O)c1ccccc1` (configuration not stated) [Phenylethanolamine] gave a flash point of 152.00 °C. Same read-out and setting: to `NNc1ccccc1` [Phenylhydrazine] belongs 89.00 °C. On the same count and under the same terms, as for `CC(C)=CC(=O)C=C(C)C` [Phorone], the figure is 85.00 °C; as for `C=CC=CC` [Piperylene], -43.00 °C.

`CCCc1ccccc1` [Propyl benzene]: the flash point is 30.00 °C. Still for that read-out and setting: as for `c1ccncc1` [Pyridine], the figure is 20.00 °C; as for `Oc1cccc(O)c1` [Resorcinol], 127.00 °C; as for `O=C(O)c1ccccc1O` [Salicylic acid], 157.00 °C. Molecule `NCCNCCNCCNCCN` [Tetraethylenepentamine] had a flash point of 163.00 °C.

As to `c1ccc2c(c1)CCCC2` [Tetrahydronaphthalene], the flash point is 71.00 °C. Same read-out and setting: to `c1ccsc1` [Thiophene] belongs -1.00 °C. On the same count and under the same terms, as for `OCCN(CCO)CCO` [Triethanolamine], the figure is 179.00 °C; as for `CN(C)C` [Trimethyl amine], -7.00 °C; as for `O=P(Oc1ccccc1)(Oc1ccccc1)Oc1ccccc1` [Triphenyl phosphate], 220.00 °C. The molecule `c1ccc(P(c2ccccc2)c2ccccc2)cc1` [Triphenyl phosphine] yielded a flash point of 180.00 °C. For `C=CCl` [Vinyl chloride], the flash point is -78.00 °C. As for `Cc1cccc(N)c1C` [Xylidine], the flash point turned out to be 97.00 °C. The same measure, in the same setting: to `CC(C)CCO[N+](=O)[O-]` [iso-Amyl nitrate] belongs 52.00 °C; to `CC(=O)OCC(C)C` [iso-Butyl acetate], 18.00 °C. Still for that read-out and setting: as for `Cc1cccc([N+](=O)[O-])c1` [m-Nitrotoluene], the figure is 106.00 °C.

`c1ccc(-c2cccc(-c3ccccc3)c2)cc1` [m-Terphenyl] returned a flash point of 135.00 °C. The same measure, in the same setting: as for `Cc1cccc(N)c1` [m-Toluidine], the figure is 86.00 °C; as for `Cc1cccc(C)c1` [m-Xylene], 29.00 °C; as for `CCCCCCCN` [n-Heptylamine], 54.00 °C. The same measure, in the same setting: as for `CCCOC(C)=O` [n-Propyl acetate], the figure is 14.00 °C; as for `COc1ccccc1C=O` [o-Anisaldehyde], 118.00 °C; as for `Cc1ccccc1Br` [o-Bromotoluene], 79.00 °C. Same read-out and setting: as for `Oc1ccccc1Cl` [o-Chlorophenol], the figure is 64.00 °C; as for `Nc1ccccc1[N+](=O)[O-]` [o-Nitroaniline], 168.00 °C. Turning to `Cc1ccccc1[N+](=O)[O-]` [o-Nitrotoluene], the flash point stood at 106.00 °C. Consider `c1ccc(-c2ccccc2-c2ccccc2)cc1` [o-Terphenyl], for which the flash point came out at 163.00 °C. Same read-out and setting: to `Cc1ccccc1N` [o-Toluidine] belongs 85.00 °C; to `Cc1ccc(O)cc1` [p-Cresol], 94.00 °C; to `Nc1ccc([N+](=O)[O-])cc1` [p-Nitroaniline], 199.00 °C. The same measure, in the same setting: to `Cc1ccc(N)cc1` [p-Toluidine] belongs 87.00 °C; to `Cc1ccc(C)cc1` [p-Xylene], 27.00 °C.

`CCCC(C)OC(C)=O` (configuration not stated) [sec-Amyl acetate] displayed a flash point of 32.00 °C. On to `CCCCC(C)OC(C)=O` (configuration not stated) [sec-Hexyl acetate], for which the flash point amounted to 45.00 °C. For `CC(C)(C)O` [tert-Butyl alcohol], the flash point is 10.00 °C.
